A short description of data set [1]: Quinidine study: safety, treatment-emergent adverse events. The note with it: for Fecal occult bleeding (TEAE): printed under most frequent and under bleeding-related TEAEs.
Data set [2] in a line: Quinidine drug-drug interaction study: edoxaban pharmacokinetics.
A short description of data set [3]: Digoxin study: safety, treatment-emergent adverse events. The note with it: for Fecal occult bleeding (TEAE): printed under most frequent and under bleeding-related TEAEs.
Data set [4] in a line: Digoxin drug-drug interaction study: edoxaban pharmacokinetics.
Data set [5] can be described thus: Amiodarone study: safety, treatment-emergent adverse events. The data set is classed as in vivo, healthy volunteers (human).
Data set [6] in a line: Tolerability across the 6 studies. The data set is classed as in vivo, healthy subjects (human). The note with it: edoxaban alone or coadministered with the 6 cardiovascular drugs.
The conditions of data set [7]: cited from earlier work.
Data set [8] is described as follows: Verapamil study: safety, treatment-emergent adverse events.
The nature of data set [9]: Dronedarone study: safety, treatment-emergent adverse events.
A short description of data set [10]: Atorvastatin study: safety, treatment-emergent adverse events.
A short description of data set [11]: Verapamil drug-drug interaction study: edoxaban pharmacokinetics.
A short description of data set [12]: Amiodarone drug-drug interaction study: edoxaban pharmacokinetics. The note with it: human, in vivo, 60 mg.
Data set [13] in a line: Dronedarone drug-drug interaction study: edoxaban pharmacokinetics.
The nature of data set [14]: Edoxaban administered alone, pharmacokinetics across the 6 studies.
The nature of data set [15]: Atorvastatin drug-drug interaction study: edoxaban pharmacokinetics. The following applies: human, in vivo, 60 mg.

The structures appear in SMILES notation. Entries after “also recorded” stand apart in the source; their conditions may differ.

As a reminder, the AUC is concentration integrated over time. Low readings indicate less exposure, high ones more exposure. By half-life is commonly meant how long it takes for the measured level to halve. A higher half-life goes with slow loss. Broadly, the AUC(0-inf) is the area under the concentration-time curve extrapolated to infinity. As a reminder, the Cmax is the maximum level reached in the sampled fluid or tissue. For orientation: Tmax means the time from dosing to the highest level. What is called AUC(0-t) is exposure summed from dosing to a finite time, without extrapolation to infinity. Low readings indicate low exposure, high ones high exposure.

On to `C=C[C@H]1C[N@@]2CC[C@H]1C[C@@H]2[C@@H](O)c1ccnc2ccc(OC)cc12` [Quinidine, quinidine], for which, in data set [1], the “Blood creatinine increased (TEAE)” value is given as 1 (2.8 %) n (%), the “Chest pain (TEAE)” value was 0 n (%), the “Epistaxis (bleeding-related TEAE)” value is 1 (2.8 %) n (%) and the “Headache (TEAE)” value is listed as 3 (8.3 %) n (%). Further, in [1], the “Hematochezia (bleeding-related TEAE)” value is reported as 0 n (%), the “Irregular menstruation (bleeding-related TEAE)” value is 0 n (%), the “Menorrhagia (bleeding-related TEAE)” value is 0 n (%) and the “Nausea (TEAE)” value was 2 (5.6 %) n (%). Moreover, in [1], the “Subjects reporting ≥1 TEAE” value was 11 (30.6 %) n (%), the “Subjects reporting ≥1 treatment-related TEAE” value is reported as 4 (11.1 %) n (%) and the “Fecal occult bleeding (TEAE)” value is on record as 0 n (%). Also, in [1] (after quinidine dosing), the “Subjects withdrawn with QTc prolongation” value is 1 subject. Also, the “Effect of coadministration on edoxaban exposure (in words)” value (shortened to “Effect … on edoxaban exposure (in words)”) in [2] (quinidine study) is on record as “increased edoxaban exposure; also recorded: significantly increased exposure”.

For `C[C@H]1O[C@@H](O[C@H]2[C@@H](O)C[C@H](O[C@H]3[C@@H](O)C[C@H](O[C@H]4CC[C@@]5(C)[C@H](CC[C@@H]6[C@@H]5C[C@@H](O)[C@]5(C)[C@@H](C7=CC(=O)OC7)CC[C@]65O)C4)O[C@@H]3C)O[C@@H]2C)C[C@H](O)[C@@H]1O` [Digoxin, digoxin], in [3], the “Dizziness (TEAE)” value is 0 n (%), the “Headache (TEAE)” value is on record as 2 (8.3 %) n (%), the “Nausea (TEAE)” value is 1 (4.2 %) n (%) and the “Subjects reporting ≥1 TEAE” value is 8 (33.3 %) n (%). Moreover, in data set [3], the “Subjects reporting ≥1 treatment-related TEAE” value is 1 (4.2 %) n (%) and the “Fecal occult bleeding (TEAE)” value is listed as 3 (12.5 %) n (%). For the same molecule, in data set [4] (digoxin study), the “Effect of coadministration on edoxaban exposure/PK (in words)” value is listed as “minimal effects; also recorded: relatively minor effects; also recorded: did not significantly affect exposure”.

Consider `CCCCc1oc2ccccc2c1C(=O)c1cc(I)c(OCCN(CC)CC)c(I)c1` [Amiodarone, amiodarone], for which, in [5], the “Contact dermatitis (TEAE)” value is on record as 2 (6.9%) n (%), the “Diarrhea (TEAE)” value is 0 n (%), the “Fecal occult bleeding (bleeding-related TEAE)” value is recorded as 0 n (%) and the “Gingival bleeding (bleeding-related TEAE)” value is given as 0 n (%). Also, in data set [5], the “Menorrhagia (bleeding-related TEAE)” value was 0 n (%), the “Pain in extremity (TEAE)” value is on record as 0 n (%), the “Subjects reporting ≥1 TEAE” value was 7 (24.1 %) n (%) and the “Subjects reporting ≥1 treatment-related TEAE” value is listed as 1 (3.4 %) n (%).

Consider `CN1CCc2nc(C(=O)N[C@@H]3C[C@@H](C(=O)N(C)C)CC[C@@H]3NC(=O)C(=O)Nc3ccc(Cl)cn3)sc2C1` [Edoxaban, edoxaban], for which, in data set [5], the “Contact dermatitis (TEAE)” value is reported as 0 n (%), the “Diarrhea (TEAE)” value was 1 (3.3 %) n (%), the “Fecal occult bleeding (bleeding-related TEAE)” value is reported as 0 n (%) and the “Gingival bleeding (bleeding-related TEAE)” value was 0 n (%). Besides, in data set [5], the “Menorrhagia (bleeding-related TEAE)” value is recorded as 0 n (%), the “Pain in extremity (TEAE)” value is 1 (3.3 %) n (%) and the “Subjects reporting ≥1 TEAE” value is on record as 5 (16.7 %) n (%). Also, the “Tolerability (in words)” value in [6] was “well tolerated”. Moreover, the “Systemically absorbed drug eliminated via renal excretion” value in data set [7] is “approximately 50%”. Also, in [7] (healthy volunteers), the “Mean terminal elimination half-life (t½)” value is 8.75 to 10.4 h and the “Time of peak concentrations postdose” value is 1 to 2 h. For the same molecule, in data set [3], the “Dizziness (TEAE)” value is reported as 1 (4.2 %) n (%), the “Headache (TEAE)” value was 0 n (%), the “Nausea (TEAE)” value is listed as 1 (4.2 %) n (%) and the “Subjects reporting ≥1 TEAE” value is given as 19 (79.2 %) n (%). Further, in [3], the “Subjects reporting ≥1 treatment-related TEAE” value is on record as 1 (4.2 %) n (%) and the “Fecal occult bleeding (TEAE)” value is reported as 1 (4.2 %) n (%). Further, in [1], the “Blood creatinine increased (TEAE)” value is 0 n (%), the “Chest pain (TEAE)” value is 1 (2.7 %) n (%), the “Epistaxis (bleeding-related TEAE)” value is recorded as 0 n (%) and the “Headache (TEAE)” value is recorded as 0 n (%). Moreover, in data set [1], the “Hematochezia (bleeding-related TEAE)” value is recorded as 1 (2.7 %) n (%), the “Irregular menstruation (bleeding-related TEAE)” value is 1 (2.7 %) n (%), the “Menorrhagia (bleeding-related TEAE)” value is on record as 1 (2.7 %) n (%) and the “Nausea (TEAE)” value was 0 n (%). In addition, in [1], the “Subjects reporting ≥1 TEAE” value is on record as 5 (13.5 %) n (%), the “Subjects reporting ≥1 treatment-related TEAE” value is given as 3 (8.1 %) n (%) and the “Fecal occult bleeding (TEAE)” value was 2 (5.4 %) n (%). In data set [8], the “Constipation (TEAE)” value is given as 1 (3.0 %) n (%), the “Epistaxis (bleeding-related TEAE)” value is 0 n (%), the “Fecal occult bleeding (bleeding-related TEAE)” value was 1 (3.0 %) n (%) and the “Headache (TEAE)” value is reported as 0 n (%). For the same molecule, in [8], the “Menorrhagia (bleeding-related TEAE)” value is on record as 0 n (%), the “Occular hyperemia (TEAE)” value is 0 n (%), the “Subjects reporting ≥1 TEAE” value is on record as 4 (12.1 %) n (%) and the “Subjects reporting ≥1 treatment-related TEAE” value is 1 (3.0 %) n (%). For the same molecule, in [9], the “Bleeding-related TEAEs” value was 0 n (%), the “Headache (TEAE)” value is given as 0 n (%), the “Subjects reporting ≥1 TEAE” value is listed as 0 n (%) and the “Subjects reporting ≥1 treatment-related TEAE” value is on record as 0 n (%). In addition, in data set [10], the “Constipation (TEAE)” value is 0 n (%), the “Dysmenorrhea (bleeding-related TEAE)” value is given as 1 (3.1%) n (%), the “Fecal occult bleeding (bleeding-related TEAE)” value is listed as 2 (6.3%) n (%) and the “Nasal congestion (TEAE)” value is 0 n (%). Further, in data set [10], the “Pharyngolaryngeal pain (TEAE)” value is 0 n (%), the “Subjects reporting ≥1 TEAE” value was 4 (13.3%) n (%) and the “Subjects reporting ≥1 treatment-related TEAE” value is 1 (3.3%) n (%). In data set [4] (human, in vivo, 60 mg), this molecule showed an AUC of 1.96 µg·h/mL, a concentration at 24 h of 0.0245 µg/mL and a half-life of 9.83 h. Also, in data set [2] (human, in vivo, 60 mg), the AUC(0-inf) was 1.58 µg·h/mL, the Cmax came to 0.223 µg/mL, the Tmax was 1.48 h and the concentration at 24 h is 0.011 µg/mL. The half-life in data set [2] (human, in vivo, 60 mg) is 6.43 h. The AUC(0-t) in data set [2] (human, in vivo, 60 mg, Edoxaban AUC0–24, quinidine study, mean (SD)) amounted to 1.45 µg·h/mL. This molecule displayed an exposure AUC(0-t) in data set [2] (human, in vivo, 60 mg, Edoxaban AUClast, quinidine study, mean (SD)) of 1.44 µg·h/mL. The “Edoxaban AUC0–24” value in data set [2] (quinidine study, mean (SD)) was 1449.2 (328.6) ng·h/mL. In addition, in data set [11] (human, in vivo, 60 mg), the AUC(0-t) came to 1.44 µg·h/mL, the concentration peaked (Cmax) at 0.226 µg/mL, the Tmax was 1.48 h and the concentration at 24 h was determined as 0.011 µg/mL. In [11] (human, in vivo, 60 mg), the half-life was 7.43 h. In data set [12], the AUC(0-inf) is 1.74 µg·h/mL, the AUC(0-t) was determined as 1.72 µg·h/mL, the peak level (Cmax) was 0.251 µg/mL and the half-life is 12.2 h. The molecule also gave a half-life in [13] (human, in vivo, 60 mg) of 10.2 h. In [14] (across the studies), the “Time of peak edoxaban concentrations postdose” value was 1 to 3 h. In data set [14] (human, in vivo, 60 mg), this molecule registered an AUC(0-inf) of 1.58 to 1.97 µg·h/mL and a Cmax of 0.223 to 0.296 µg/mL. Also, in [15], the AUC(0-inf) came out at 1.97 µg·h/mL, the highest level (Cmax) was 0.282 µg/mL, the Tmax came to 1.02 h and the concentration at 24 h was determined as 0.0126 µg/mL. The molecule further showed a half-life in data set [15] of 12 h.

As to `CC(C)c1c(C(=O)Nc2ccccc2)c(-c2ccccc2)c(-c2ccc(F)cc2)n1CC[C@@H](O)C[C@@H](O)CC(=O)O` [Atorvastatin, atorvastatin], in data set [10], the “Constipation (TEAE)” value was 2 (6.3%) n (%), the “Dysmenorrhea (bleeding-related TEAE)” value was 0 n (%), the “Fecal occult bleeding (bleeding-related TEAE)” value is 0 n (%) and the “Nasal congestion (TEAE)” value is listed as 1 (3.1%) n (%). In addition, in data set [10], the “Pharyngolaryngeal pain (TEAE)” value was 1 (3.1%) n (%), the “Subjects reporting ≥1 TEAE” value is recorded as 6 (18.8%) n (%) and the “Subjects reporting ≥1 treatment-related TEAE” value is listed as 3 (9.4%) n (%).

With `COc1ccc(CCN(C)CCCC(C#N)(c2ccc(OC)c(OC)c2)C(C)C)cc1OC` (stereo not drawn) [Verapamil, verapamil], in data set [8], the “Constipation (TEAE)” value is listed as 4 (12.1 %) n (%), the “Epistaxis (bleeding-related TEAE)” value was 0 n (%), the “Fecal occult bleeding (bleeding-related TEAE)” value is on record as 0 n (%) and the “Headache (TEAE)” value is 3 (9.1 %) n (%). In data set [8], the “Menorrhagia (bleeding-related TEAE)” value is on record as 1 (3.0 %) n (%), the “Occular hyperemia (TEAE)” value is given as 1 (3.0 %) n (%), the “Subjects reporting ≥1 TEAE” value is reported as 13 (39.4 %) n (%) and the “Subjects reporting ≥1 treatment-related TEAE” value is given as 9 (27.2 %) n (%). For the same molecule, the “Subjects withdrawn with abnormal ECG” value in data set [8] (following verapamil monotherapy) is 3 subjects. The “Effect … on edoxaban exposure (in words)” value in data set [11] (verapamil study) is listed as “increased edoxaban exposure; also recorded: significantly increased exposure”.

With `CCCCc1oc2ccc(NS(C)(=O)=O)cc2c1C(=O)c1ccc(OCCCN(CCCC)CCCC)cc1` [Dronedarone, dronedarone], in [9], the “Bleeding-related TEAEs” value is on record as 0 n (%), the “Headache (TEAE)” value is given as 0 n (%), the “Subjects reporting ≥1 TEAE” value is given as 4 (11.8 %) n (%) and the “Subjects reporting ≥1 treatment-related TEAE” value is recorded as 1 (2.9 %) n (%). The “Effect … on edoxaban exposure (in words)” value in data set [13] (dronedarone study) is on record as “increased edoxaban exposure; also recorded: significantly increased exposure”.
